{
  "source": "patent US10023565B2",
  "about": "“N,N′ substituted piperidinamine compounds, and preparation method and usage thereof” (Institute of Pharmacology and Toxicology Academy of …, priority 2013, dated 2018)",
  "key": {"[1]": {"system": "AsPC-1", "test": "Extended test against tumor cell lines (ATPlite)", "assay_type": "cell-based", "details": "AsPC-1 (pancreatic cancer), 72 hours", "protocol": "(§1) The compounds of Examples 36/37/40/47/49 were used to carry out extended test against tumor cell lines, wherein 12 kinds of cells were selected, including liver cancer cells, gastric cancer cells, pancreatic cancer cells, colorectal cancer cells, lung cancer cells and normal cells, which were shown in Table 12:\n(§2) A 100 mm culture dish with overgrown adherent cells was digested with 1 ml 0.25% trypsin (GIBCO) at 37° C. for 5 min, and the reaction was terminated with 2 ml culture medium (containing 10% FBS, GIBCO). The cells were scattered and collected, after counting, diluted to 1×10^5 cells/ml, and seeded into a 96-well plate at 50 μl/well, 5000 cells/well, excluding the peripheral circle of wells in which no cell was added, but PBS was added, 54 wells in total, and then incubated at 37° C. for 24 hours for adhering.\n(§3) The test sample was diluted to final concentration of 4, 1, 0.25, 0.063, 0.016 μM, culture medium was filled in control well, 3 parellel wells were set for each concentration, 50 μl each well, followed by incubation at 37° C. for 72 hours.\n(§4) 3) Test after incubation at 37° C. for 72 hours: 50 μL of ATPlite kitsubstrate solution was added in each well, and vibrated for 3 min, followed by placing aside in darkness for 10 min, and then supernatant 100 μl/well was taken and placed on a luminescence test plate; the luminescence test plate that has been fully incubated was placed in a luminescence test instrument, to read luminescence value.\n(§5) Cell survival rate (%)=Experimental group RLU/control group RLU×100%. The experimental data were subjected to data analysis and processing by utilizing GraphPad software."}, "[2]": {"system": "BGC823", "test": "Extended test against tumor cell lines (ATPlite)", "assay_type": "cell-based", "details": "BGC823 (gastric cancer), 72 hours", "protocol": "as §1, §2, §3, §4, §5"}, "[3]": {"system": "Huh-7", "test": "Extended test against tumor cell lines (ATPlite)", "assay_type": "cell-based", "details": "Huh-7 (liver cancer), 72 hours", "protocol": "as §1, §2, §3, §4, §5"}, "[4]": {"system": "MRC5 (lung epithelial fibroblast)", "test": "Extended test against tumor cell lines (ATPlite)", "assay_type": "cell-based", "details": "MRC5 (normal cells), 72 hours", "protocol": "as §1, §2, §3, §4, §5"}, "[5]": {"system": "HepG2", "test": "Extended test against tumor cell lines (ATPlite)", "assay_type": "cell-based", "details": "HepG2 (liver cancer), 72 hours", "protocol": "as §1, §2, §3, §4, §5"}, "[6]": {"system": "N87", "test": "Extended test against tumor cell lines (ATPlite)", "assay_type": "cell-based", "details": "N87 (gastric cancer), 72 hours", "protocol": "as §1, §2, §3, §4, §5"}, "[7]": {"system": "WI-38 (human embryonic lung fibroblast)", "test": "Extended test against tumor cell lines (ATPlite)", "assay_type": "cell-based", "details": "WI-38 (normal cells), 72 hours", "protocol": "as §1, §2, §3, §4, §5"}, "[8]": {"system": "MIA-PaCa-2", "test": "Extended test against tumor cell lines (ATPlite)", "assay_type": "cell-based", "details": "MIA-PaCa-2 (pancreatic cancer), 72 hours", "protocol": "as §1, §2, §3, §4, §5"}, "[9]": {"system": "COLO205", "test": "Extended test against tumor cell lines (ATPlite)", "assay_type": "cell-based", "details": "COLO205 (colorectal cancer), 72 hours", "protocol": "as §1, §2, §3, §4, §5"}, "[10]": {"system": "H460", "test": "Extended test against tumor cell lines (ATPlite)", "assay_type": "cell-based", "details": "H460 (lung cancer), 72 hours", "protocol": "as §1, §2, §3, §4, §5"}, "[11]": {"system": "A549", "test": "Extended test against tumor cell lines (ATPlite)", "assay_type": "cell-based", "details": "A549 (lung cancer), 72 hours", "protocol": "as §1, §2, §3, §4, §5"}, "[12]": {"system": "HT-29", "test": "Extended test against tumor cell lines (ATPlite)", "assay_type": "cell-based", "details": "HT-29 (colorectal cancer), 72 hours", "protocol": "as §1, §2, §3, §4, §5"}, "[13]": {"system": "BT/Lap^R1.0", "test": "Antitumor bioactivity evaluation, breast cancer cells (ATPlite)", "assay_type": "cell-based, human", "details": "Homo sapiens", "how_it_was_run": "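After plating 5000 cells per well and letting them attach for 24 h, compounds are added at a single 5 μM final concentration, either alone or together with lapatinib at 1 μM. Cultures incubate 72 h at 37 °C before ATP content is measured by luminescence.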"}},
  "note": "pIC50: −log10 of the molar value.",
  "data": [
    {"compound": "CSc1nccc(N2CCC(N(C)Cc3ccc(Cl)cc3Cl)CC2)n1", "note": "[Example 40, N-methyl-N-(2,4-dichlorobenzyl)-N-[1-(2-methylthiopyrimidin-4-yl)piperidin-4-yl]amine]", "values": [
      {"measurement": "Survival rate", "setting": "[1]; 0.016 μM", "result": 97.8, "unit": "%"},
      {"measurement": "Survival rate", "setting": "[1]; 0.063 μM", "result": 96.1, "unit": "%"},
      {"measurement": "Survival rate", "setting": "[1]; 0.25 μM", "result": 93.1, "unit": "%"},
      {"measurement": "Survival rate", "setting": "[1]; 1 μM", "result": 83.3, "unit": "%"},
      {"measurement": "Survival rate", "setting": "[1]; 4 μM", "result": 51.2, "unit": "%"},
      {"measurement": "Survival rate", "setting": "[2]; 0.016 μM", "result": 98.3, "unit": "%"},
      {"measurement": "Survival rate", "setting": "[2]; 0.063 μM", "result": 103.1, "unit": "%"},
      {"measurement": "Survival rate", "setting": "[2]; 0.25 μM", "result": 91.3, "unit": "%"},
      {"measurement": "Survival rate", "setting": "[2]; 1 μM", "result": 73.7, "unit": "%"},
      {"measurement": "Survival rate", "setting": "[2]; 4 μM", "result": 21.1, "unit": "%"},
      {"measurement": "Survival rate", "setting": "[3]; 0.016 μM", "result": 93.8, "unit": "%"},
      {"measurement": "Survival rate", "setting": "[3]; 0.063 μM", "result": 90.7, "unit": "%"},
      {"measurement": "Survival rate", "setting": "[3]; 0.25 μM", "result": 87.3, "unit": "%"},
      {"measurement": "Survival rate", "setting": "[3]; 1 μM", "result": 65.2, "unit": "%"},
      {"measurement": "Survival rate", "setting": "[3]; 4 μM", "result": 14.3, "unit": "%"},
      {"measurement": "Survival rate", "setting": "[4]; 0.016 μM", "result": 93.6, "unit": "%"},
      {"measurement": "Survival rate", "setting": "[4]; 0.063 μM", "result": 88.9, "unit": "%"},
      {"measurement": "Survival rate", "setting": "[4]; 0.25 μM", "result": 91.9, "unit": "%"},
      {"measurement": "Survival rate", "setting": "[4]; 1 μM", "result": 86.5, "unit": "%"},
      {"measurement": "Survival rate", "setting": "[4]; 4 μM", "result": 67.6, "unit": "%"},
      {"measurement": "Survival rate", "setting": "[5]; 0.016 μM", "result": 94.7, "unit": "%"},
      {"measurement": "Survival rate", "setting": "[5]; 0.063 μM", "result": 94.8, "unit": "%"},
      {"measurement": "Survival rate", "setting": "[5]; 0.25 μM", "result": 86.4, "unit": "%"},
      {"measurement": "Survival rate", "setting": "[5]; 1 μM", "result": 55.3, "unit": "%"},
      {"measurement": "Survival rate", "setting": "[5]; 4 μM", "result": 4.5, "unit": "%"},
      {"measurement": "Survival rate", "setting": "[6]; 0.016 μM", "result": 97.9, "unit": "%"},
      {"measurement": "Survival rate", "setting": "[6]; 0.063 μM", "result": 92.7, "unit": "%"},
      {"measurement": "Survival rate", "setting": "[6]; 0.25 μM", "result": 89.7, "unit": "%"},
      {"measurement": "Survival rate", "setting": "[6]; 1 μM", "result": 71.5, "unit": "%"},
      {"measurement": "Survival rate", "setting": "[6]; 4 μM", "result": 36.3, "unit": "%"},
      {"measurement": "Survival rate", "setting": "[7]; 0.016 μM", "result": 99.3, "unit": "%"},
      {"measurement": "Survival rate", "setting": "[7]; 0.063 μM", "result": 97.3, "unit": "%"},
      {"measurement": "Survival rate", "setting": "[7]; 0.25 μM", "result": 95.8, "unit": "%"},
      {"measurement": "Survival rate", "setting": "[7]; 1 μM", "result": 92.3, "unit": "%"},
      {"measurement": "Survival rate", "setting": "[7]; 4 μM", "result": 64.2, "unit": "%"},
      {"measurement": "Survival rate", "setting": "[8]; 0.016 μM", "result": 94.6, "unit": "%"},
      {"measurement": "Survival rate", "setting": "[8]; 0.063 μM", "result": 94.8, "unit": "%"},
      {"measurement": "Survival rate", "setting": "[8]; 0.25 μM", "result": 90.2, "unit": "%"},
      {"measurement": "Survival rate", "setting": "[8]; 1 μM", "result": 77.3, "unit": "%"},
      {"measurement": "Survival rate", "setting": "[8]; 4 μM", "result": 20.6, "unit": "%"},
      {"measurement": "Survival rate", "setting": "[9]; 0.016 μM", "result": 96.2, "unit": "%"},
      {"measurement": "Survival rate", "setting": "[9]; 0.063 μM", "result": 98.2, "unit": "%"},
      {"measurement": "Survival rate", "setting": "[9]; 0.25 μM", "result": 98.6, "unit": "%"},
      {"measurement": "Survival rate", "setting": "[9]; 1 μM", "result": 91.9, "unit": "%"},
      {"measurement": "Survival rate", "setting": "[9]; 4 μM", "result": 30.3, "unit": "%"},
      {"measurement": "Survival rate", "setting": "[10]; 0.016 μM", "result": 98.7, "unit": "%"},
      {"measurement": "Survival rate", "setting": "[10]; 0.063 μM", "result": 98.7, "unit": "%"},
      {"measurement": "Survival rate", "setting": "[10]; 0.25 μM", "result": 93.7, "unit": "%"},
      {"measurement": "Survival rate", "setting": "[10]; 1 μM", "result": 75.9, "unit": "%"},
      {"measurement": "Survival rate", "setting": "[10]; 4 μM", "result": 26.3, "unit": "%"},
      {"measurement": "Survival rate", "setting": "[11]; 0.016 μM", "result": 97.1, "unit": "%"},
      {"measurement": "Survival rate", "setting": "[11]; 0.063 μM", "result": 95.9, "unit": "%"},
      {"measurement": "Survival rate", "setting": "[11]; 0.25 μM", "result": 95.3, "unit": "%"},
      {"measurement": "Survival rate", "setting": "[11]; 1 μM", "result": 81.2, "unit": "%"},
      {"measurement": "Survival rate", "setting": "[11]; 4 μM", "result": 38, "unit": "%"},
      {"measurement": "Survival rate", "setting": "[12]; 0.016 μM", "result": 100.6, "unit": "%"},
      {"measurement": "Survival rate", "setting": "[12]; 0.063 μM", "result": 105.4, "unit": "%"},
      {"measurement": "Survival rate", "setting": "[12]; 0.25 μM", "result": 102, "unit": "%"},
      {"measurement": "Survival rate", "setting": "[12]; 1 μM", "result": 89.2, "unit": "%"},
      {"measurement": "Survival rate", "setting": "[12]; 4 μM", "result": 41.2, "unit": "%"},
      {"measurement": "pIC50", "setting": "[13]", "result": 5.77},
      {"measurement": "inhibition at 5 µM", "setting": "[13]; test sample 5 μM, 72 hours, read-out: Inhibitory Rate % BT/Lap^R1.0", "result": 68.1, "unit": "%"}
    ]}
  ]
}
